The values that follow come from patent US12486237B2, “Polymorphic form of (-)-cibenzoline succinate” (CELLTRION INC., priority 2020, dated 2025).

What all share (type): physicochemical
Series [1] can be described thus: Particle size analysis by laser diffraction particle analyzer. The settings on record: dispersant heptane. As for the experimental part: The particle size of the crystalline form was measured with a laser diffraction particle size analyzer under the following conditions. • Manufacturer: Malvern Instruments Limited, UK • Model: Mastersizer 2000 • Sampler: Hydro 2000 G/S Instrumental Conditions: • Particle reflection index (RI)): 1.52 • Dispersant: heptane • Absorbance: 0.1 • Refractive index of dispersant: 1.39 • Analysis model: general purpose • Sensitivity: enhanced • Absorption limit: 10-15% • Measurement time: 30 seconds (repeated three times per sample) • Agitation speed: 3500 RPM Sample Preparation:
About 150 mg of the sample was dissolved in 20 ml of 0.2% Span 85-containing heptane in a 50 ml beaker. The solution was sonicated for about 10 seconds and placed in a sampler, and when the absorption limit reached 10 to 15%, measurement was performed.
The particle size of crystalline form 3 of (−)-cibenzoline succinate prepared according to Example 4 was measured by a laser diffraction particle analyzer.

A short description of series [2]: Accelerated storage stability test (48-hour, accelerated aging conditions). The settings on record: 48-hour storage, AAC 40° C./75% RH. As for the experimental part:
For the crystalline and amorphous forms of (−)-cibenzoline succinate prepared according to Examples 1 to 4 above, a 48-hour storage stability test was performed under accelerated aging conditions (AAC; 40° C./75% RH).

Series [3] is described as follows: Long-term storage stability at 60° C. evaluated by HT-XRPD, DSC, TGMS and UPLC. As for the experimental part: The high-throughput XRD of the crystalline form was analyzed under the following conditions. • Manufacturer: Bruker, USA • Model: General Area Detector Diffraction System (GADDS) • Measurement temperature: 25° C. (RT) • 2θ measurement range: 1.5 to 41.5° • Exposure time: 90 seconds • Others: Measurement of intensity and geometric parameters with a V A NTEC-500 gas area detector (Bruker, USA) 9. High-Resolution X-Ray Diffraction (XRD) Analysis
Thermogravimetric analysis coupled with mass spectroscopy for the crystalline form was performed under the following conditions. • Manufacturer: Mettler-Toledo GmbH, Switzerland • Model: TGA/DSC 3+ STARe system • Temperature range: 25 to 300° C. • Temperature rise rate: 10° C./min • Mass spectrometer: mass spectrometer Omnistar GSD 301 T2 (Pfeiffer Vacuum GmbH, Germany) 11. Differential Scanning Calorimetry (DSC) Analysis
The calorimetric analysis of the crystalline form was performed by differential scanning calorimetry (DSC) under the following conditions. • Manufacturer: Metter Toredo GmbH, Switzerland • Model: heat flux DSC3+ STARe system • Temperature rise rate: 10° C./min • Temperature range: 25 to 300° C. • N2 flow rate: 50 ml/min. 12. Karl Fischer Titration Analysis
The mass of the crystalline form was measured by ultra-performance liquid chromatography-mass spectrometer (UPLC-MS) under the following conditions. • Manufacturer: Agilent, USA • Model: Agilent 1290 • Detector 1: UV detector set at 224 nm • Detector 2: MSD XT in Positive Scan Mode • Measurement temperature: 25° C. (RT) • Column: Agilent Eclipse Plus C18 HD (50×2.1 mm; 1.8 μm) • Column temperature: 35° C. • Flow cell: 10 mm path • Gradient: Mobile phase A: 10 mM Ammonium acetate/Mobile phase B: Acetonitrile • Flow: 0.8 ml/min • Sample concentration: 0.8 mg/ml • Solvent: Water: Acetonitrile (50:50 v/v) • Injection: 1 μl • Retention time: 1.54 min 15. Analysis of Particle Size Distribution (PSD)
Crystalline form 3 of (−)-cibenzoline succinate prepared according to Example 4 was stored at 60° C. for 4 weeks, and then the long-term storage stability thereof was evaluated by HT-XRPD, DSC, TGMS and UPLC analysis.

The nature of series [4]: Dynamic vapor sorption (DVS) analysis. How it is done: Dynamic vapor sorption was measured using a vapor sorption analyzer under the following conditions. • Manufacturer: Surface Measurement Systems Ltd, UK • Model: DVS Adventure-I system • Analysis of crystalline form of obtained solid: HT-XRPD Relative Humidity Cycle:
Relative humidity was cycled from 40% to 95% (sorption), from 95% to 0% (desorption) and back to 40% (sorption 2). In each step, the relative humidity was changed to 10% at a constant temperature of 25° C. The weight equilibrium was set to a dm/dt of 0.002%/min.
Dynamic vapor sorption data (water sorption isotherms) were measured by a vapor sorption analyzer.

Where [5] appears, read: default reference value (before storage).

“Also recorded” adds a separate entry of the source.

In series [1], `O=C(O)CCC(=O)O.c1ccc(C2(c3ccccc3)C[C@@H]2C2=NCCN2)cc1` [Reference Example, (−)-cibenzoline succinate] showed a D10 of 17.10 μm, a D50 of 127.82 μm and a D90 of 307.56 μm.
With `O=C(O)CCC(=O)O.c1ccc(C2(c3ccccc3)C[C@@H]2C2=NCCN2)cc1` [Crystalline form 1, (−)-cibenzoline succinate], the Accelerated storage stability result in series [2] is on record as “Unstable - presence of different”.
Still for that read-out and setting: under `O=C(O)CCC(=O)O.c1ccc(C2(c3ccccc3)C[C@@H]2C2=NCCN2)cc1` [Amorphous, (−)-cibenzoline succinate] stands “Unstable - presence of different”.
As for `O=C(O)CCC(=O)O.c1ccc(C2(c3ccccc3)C[C@@H]2C2=NCCN2)cc1` [Crystalline form 3, (−)-cibenzoline succinate], the Accelerated storage stability result in series [2] is recorded as “Stable - presence of only”; in series [2] (listed as crystalline form 3) it was “stable”. Besides, the Chemical purity in series [3] (setting [5]) is listed as 100%; in series [3] (stored at 60° C., week 1), 100%; in series [3] (stored at 60° C., week 4), 100%. The DSC came to 193.2 °C in series [3] (setting [5]); 191.2 °C in series [3] (stored at 60° C., week 1); 191.1 °C in series [3] (stored at 60° C., week 4). In addition, the “TGA mass loss rate” value in series [3] (setting [5]) is 0.6%; in series [3] (stored at 60° C., week 1), 0.2%; in series [3] (stored at 60° C., week 4) it was 0.6%. In addition, in series [3] (stored at 60° C. for 4 weeks), the “Long-term storage stability (crystalline form and chemical purity)” value is “stable without changes in the crystalline form and chemical purity”. In series [1], this molecule displayed a D10 of 8.80 μm. In addition, the D50 in series [1] and in series [1] (listed as crystalline form 3) was 30.44 μm each time. The same molecule registered a D90 in series [1] of 60.72 μm. The “water absorption rate at 80% relative humidity” value in series [4] (25° C., 80% relative humidity) is recorded as 0.2%. For the same molecule, the “water absorbed in sorption 2” value in series [4] (25° C., relative humidity 0% back to 40%) is “absorbed almost no water”. The “water absorption rate in the sorption cycle” value in series [4] (25° C., relative humidity 40% to 95%) is recorded as “up to 0.3%”. Moreover, the “release of absorbed water in the desorption cycle” value in series [4] (25° C., relative humidity 95% to 0%) is reported as “completely released”. In series [4] (after DVS cycle), the “crystalline form of sample obtained after DVS (HT-XRPD)” value is reported as “maintained in Form D”. Besides, the “Hygroscopicity classification (European Pharmacopeia 5.0, 5.11)” value in series [4] (based on water absorption at 80% relative humidity) is “non-hygroscopic; also recorded: non-hydroscopic”.
`O=C(O)CCC(=O)O.c1ccc(C2(c3ccccc3)C[C@@H]2C2=NCCN2)cc1` [Crystalline form 2, (−)-cibenzoline succinate]: the Accelerated storage stability result in series [2] is reported as “Unstable - presence of different”.
